Measurements published in ChEMBL document CHEMBL5346920, “Development of the "hidden" multi-target-directed ligands by AChE/BuChE for the treatment of Alzheimer's disease” (Eur J Med Chem, 2023).
pIC50: −log10 of the molar value. Activity calls are given as the source filed them. The rule behind the calls is not given here.

Assays:
BV-2 [1] = test: (§1) Cytotoxicity against mouse BV-2 cells assessed as cell viability at 30 uM by CCK8 assay; type: toxicity, cell-based; details: bv-2, 30 µM
BV-2 [2] = test: Anti-inflammatory activity against LPS-stimulated mouse BV-2 cells assessed as inhibition of LPS-induced IL-6 production by measuring IL-6 level at 9 uM incubated for 24 hrs in presence of LPS (reference value: 1503.2 pg/ml); type: functional
BV-2 [3] = test: Anti-inflammatory activity against LPS-stimulated mouse BV-2 cells assessed as inhibition of LPS-induced IL-6 production by measuring IL-6 level at 3 uM incubated for 24 hrs in presence of LPS (reference value: 1503.2 pg/ml); type: functional
BV-2 [4] = test: Anti-inflammatory activity against LPS-stimulated mouse BV-2 cells assessed as inhibition of LPS-induced IL-1 beta production by measuring IL-beta level at 1 uM incubated for 24 hrs in presence of LPS (reference value: 221.3 pg/ml); type: functional
BV-2 [5] = test: Anti-inflammatory activity against LPS-stimulated mouse BV-2 cells assessed as inhibition of LPS-induced IL-6 production by measuring IL-6 level at 1 uM incubated for 24 hrs in presence of LPS (reference value: 1503.2 pg/ml); type: functional
BV-2 [6] = test: Anti-inflammatory activity against LPS-stimulated mouse BV-2 cells assessed as inhibition of LPS-induced IL-1 beta production by measuring IL-beta level at 3 uM incubated for 24 hrs in presence of LPS (reference value: 221.3 pg/ml); type: functional
BV-2 [7] = test: Anti-inflammatory activity against LPS-stimulated mouse BV-2 cells assessed as inhibition of LPS-induced IL-1 beta production by measuring IL-beta level at 9 uM incubated for 24 hrs in presence of LPS (reference value: 221.3 pg/ml); type: functional
BV-2 [8] = test: Anti-inflammatory activity against LPS-stimulated mouse BV-2 cells assessed as inhibition of LPS-induced NO production incubated for 24 hrs in presence of LPS; type: functional, cell-based; details: dose 1-9 µM
[9] = Metal chelating activity assessed as compound-Fe2+ complex formation at 37.5 uM incubated for 30 mins in presence of FeSO4 by UV-Vis spectrometry
[10] = as §1; type: toxicity, cell-based; details: BV-2 cells, read-out: Activity
BV-2 [11] = test: Cytotoxicity against mouse BV-2 cells assessed as reduction in cell viability at 10 uM by CCK8 assay; type: toxicity, cell-based; details: bv-2, 10 µM
[12] = Permeability of the compound at 100 ug/ml incubated for 18 hrs by PAMPA assay; type: ADME; details: dose 100 µg/ml, read-out: permeability
Homo sapiens = organism: Homo sapiens; test: Selectivity index, ratio of IC50 for inhibition of human recombinant MAO-A expressed in baculovirus-infected BTI cells to IC50 for inhibition of human recombinant MAO-B expressed in baculovirus-infected BTI cells
[13] = target: Cholinesterase (Equus caballus) (UniProt P81908); test: Inhibition of equine serum BuChE using butyrylthiocholine chloride as substrate at 25 uM by Ellman's method; type: cell-free
Sequence of Cholinesterase (Equus caballus) (P81908 whole entry): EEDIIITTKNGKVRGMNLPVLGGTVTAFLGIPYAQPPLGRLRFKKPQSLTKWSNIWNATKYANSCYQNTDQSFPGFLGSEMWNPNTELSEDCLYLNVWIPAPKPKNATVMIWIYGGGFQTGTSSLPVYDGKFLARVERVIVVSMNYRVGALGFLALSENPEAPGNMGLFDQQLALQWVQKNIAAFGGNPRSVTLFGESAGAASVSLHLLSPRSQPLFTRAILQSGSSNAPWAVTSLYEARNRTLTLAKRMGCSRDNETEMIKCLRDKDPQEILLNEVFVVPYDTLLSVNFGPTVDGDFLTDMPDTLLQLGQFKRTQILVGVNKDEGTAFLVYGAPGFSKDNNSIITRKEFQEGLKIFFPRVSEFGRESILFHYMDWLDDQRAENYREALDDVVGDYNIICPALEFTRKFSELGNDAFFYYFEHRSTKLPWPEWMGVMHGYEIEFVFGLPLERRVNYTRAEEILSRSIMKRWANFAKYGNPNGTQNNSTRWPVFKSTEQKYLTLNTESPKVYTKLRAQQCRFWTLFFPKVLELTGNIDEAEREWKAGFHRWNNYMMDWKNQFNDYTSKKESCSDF

PC-12 [14] = test: Neuroprotective activity against Amyloid beta(25 to 35)-induced cell injury in rat PC12 cells assessed as cell viability at 5 uM pretreated for 2 hrs followed by incubation with Abeta(25 to 35) for 24 hrs by CCK-8 assay (reference value: 41 to 58.6%); type: functional; details: time 26 hrs, read-out: Activity
[15] = Stability of the compound in rat plasma assessed as parent compound remaining at 10 ug/ml measured after 3 hrs by UPLC-MS/MS analysis; type: ADME, cell-free; details: at 10 µg/mL, read-out: Stability
[16] = target: T1, Amine oxidase [flavin-containing] A (Homo sapiens, UniProt P21397); test: Inhibition of human recombinant MAO-A expressed in baculovirus-infected BTI cells using kynuramine as substrate incubated for 30 mins by fluorescence based analysis
T1 sequence (P21397 whole entry): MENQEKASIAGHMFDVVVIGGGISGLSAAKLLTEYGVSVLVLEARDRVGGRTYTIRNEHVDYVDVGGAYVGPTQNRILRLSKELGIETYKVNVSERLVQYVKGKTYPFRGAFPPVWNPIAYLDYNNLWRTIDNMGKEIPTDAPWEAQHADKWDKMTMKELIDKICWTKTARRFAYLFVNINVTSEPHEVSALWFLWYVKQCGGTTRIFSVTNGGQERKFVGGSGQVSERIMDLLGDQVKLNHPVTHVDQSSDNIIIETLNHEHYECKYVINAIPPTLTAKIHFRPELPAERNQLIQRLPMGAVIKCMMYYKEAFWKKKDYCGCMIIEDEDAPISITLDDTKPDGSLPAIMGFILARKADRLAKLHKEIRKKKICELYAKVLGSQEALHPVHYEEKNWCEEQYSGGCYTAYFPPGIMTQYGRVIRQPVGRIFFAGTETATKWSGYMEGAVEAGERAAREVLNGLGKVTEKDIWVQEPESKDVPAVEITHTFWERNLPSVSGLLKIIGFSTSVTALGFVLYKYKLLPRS

[17] = target: Amyloid-beta precursor protein (Homo sapiens) (UniProt P05067); test: Inhibition of self-induced Amyloid beta (1 to 42) (unknown origin) aggregation at 25 uM incubated for 24 hrs by thioflavin T-based fluorescence analysis
Sequence of Amyloid-beta precursor protein (Homo sapiens) (P05067 whole entry): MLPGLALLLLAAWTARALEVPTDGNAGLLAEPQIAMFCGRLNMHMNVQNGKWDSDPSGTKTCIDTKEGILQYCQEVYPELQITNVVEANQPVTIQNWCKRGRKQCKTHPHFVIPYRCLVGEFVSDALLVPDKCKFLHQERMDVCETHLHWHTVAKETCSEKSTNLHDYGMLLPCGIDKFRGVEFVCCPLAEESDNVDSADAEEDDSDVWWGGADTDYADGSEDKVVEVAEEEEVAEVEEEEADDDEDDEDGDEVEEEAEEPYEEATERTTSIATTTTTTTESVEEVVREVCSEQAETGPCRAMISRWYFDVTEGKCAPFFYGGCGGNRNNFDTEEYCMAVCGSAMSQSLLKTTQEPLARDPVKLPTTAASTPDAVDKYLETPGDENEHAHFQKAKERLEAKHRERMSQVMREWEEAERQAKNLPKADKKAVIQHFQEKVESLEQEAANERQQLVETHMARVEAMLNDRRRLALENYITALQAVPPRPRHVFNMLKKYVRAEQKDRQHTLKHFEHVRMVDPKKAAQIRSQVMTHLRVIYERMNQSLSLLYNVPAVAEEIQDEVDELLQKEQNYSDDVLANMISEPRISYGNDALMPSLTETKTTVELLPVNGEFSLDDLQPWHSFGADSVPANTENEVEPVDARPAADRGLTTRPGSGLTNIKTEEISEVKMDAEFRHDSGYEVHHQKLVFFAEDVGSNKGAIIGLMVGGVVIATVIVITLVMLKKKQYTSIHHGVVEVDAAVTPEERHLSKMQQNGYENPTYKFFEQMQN

[18] = target: T2, Amine oxidase [flavin-containing] B (Homo sapiens, UniProt P27338); test: Inhibition of human recombinant MAO-B expressed in baculovirus-infected BTI cells using kynuramine as substrate incubated for 30 mins by fluorescence based analysis
T2 sequence (P27338 whole entry): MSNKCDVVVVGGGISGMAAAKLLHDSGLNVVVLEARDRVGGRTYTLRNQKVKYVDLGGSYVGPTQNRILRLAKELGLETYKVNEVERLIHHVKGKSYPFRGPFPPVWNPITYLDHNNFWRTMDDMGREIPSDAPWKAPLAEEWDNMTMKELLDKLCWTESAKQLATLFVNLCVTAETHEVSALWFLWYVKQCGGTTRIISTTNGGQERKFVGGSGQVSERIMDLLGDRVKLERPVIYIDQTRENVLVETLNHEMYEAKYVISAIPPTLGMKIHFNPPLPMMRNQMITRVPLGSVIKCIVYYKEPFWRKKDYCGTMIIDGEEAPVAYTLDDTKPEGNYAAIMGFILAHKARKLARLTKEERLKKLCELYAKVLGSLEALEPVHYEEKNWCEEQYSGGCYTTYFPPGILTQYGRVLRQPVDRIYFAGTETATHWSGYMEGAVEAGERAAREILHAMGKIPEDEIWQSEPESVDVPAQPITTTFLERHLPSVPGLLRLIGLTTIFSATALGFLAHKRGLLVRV

BV-2 [19] = test: Anti-inflammatory activity against LPS-stimulated mouse BV-2 cells assessed as inhibition of LPS-induced IL-6 production incubated for 24 hrs in presence of LPS; type: functional, cell-based; details: dose 1-9 µM
BV-2 [20] = test: Anti-inflammatory activity against LPS-stimulated mouse BV-2 cells assessed as inhibition of LPS-induced IL-1 beta production incubated for 24 hrs in presence of LPS; type: functional, cell-based; details: dose 1-9 µM
[21] = Stability of the compound in blank intestinal juice assessed as parent compound remaining at 1 mg/ml measured after 8 hrs by UPLC-MS/MS analysis; type: ADME; details: read-out: Stability
[22] = Stability of the compound in blank gastric juice assessed as parent compound remaining at 1 mg/ml measured after 8 hrs by UPLC-MS/MS analysis; type: ADME; details: read-out: Stability
PC-12 [23] = test: Neuroprotective activity against Amyloid beta(25 to 35)-induced cell injury in rat PC12 cells assessed as cell viability at 20 uM pretreated for 2 hrs followed by incubation with Abeta(25 to 35) for 24 hrs by CCK-8 assay (reference value: 41 to 58.6%); type: functional; details: time 26 hrs, read-out: Activity
[24] = Stability of the compound in artificial gastric juice assessed as parent compound remaining at 1 mg/ml measured after 8 hrs by UPLC-MS/MS analysis; type: ADME; details: read-out: Stability
Acetylcholinesterase = Acetylcholinesterase (Electrophorus electricus, UniProt O42275); test: Inhibition of electric eel AChE using acetylthiocholine chloride as substrate by Ellman's method
Sequence of Acetylcholinesterase (O42275 whole entry): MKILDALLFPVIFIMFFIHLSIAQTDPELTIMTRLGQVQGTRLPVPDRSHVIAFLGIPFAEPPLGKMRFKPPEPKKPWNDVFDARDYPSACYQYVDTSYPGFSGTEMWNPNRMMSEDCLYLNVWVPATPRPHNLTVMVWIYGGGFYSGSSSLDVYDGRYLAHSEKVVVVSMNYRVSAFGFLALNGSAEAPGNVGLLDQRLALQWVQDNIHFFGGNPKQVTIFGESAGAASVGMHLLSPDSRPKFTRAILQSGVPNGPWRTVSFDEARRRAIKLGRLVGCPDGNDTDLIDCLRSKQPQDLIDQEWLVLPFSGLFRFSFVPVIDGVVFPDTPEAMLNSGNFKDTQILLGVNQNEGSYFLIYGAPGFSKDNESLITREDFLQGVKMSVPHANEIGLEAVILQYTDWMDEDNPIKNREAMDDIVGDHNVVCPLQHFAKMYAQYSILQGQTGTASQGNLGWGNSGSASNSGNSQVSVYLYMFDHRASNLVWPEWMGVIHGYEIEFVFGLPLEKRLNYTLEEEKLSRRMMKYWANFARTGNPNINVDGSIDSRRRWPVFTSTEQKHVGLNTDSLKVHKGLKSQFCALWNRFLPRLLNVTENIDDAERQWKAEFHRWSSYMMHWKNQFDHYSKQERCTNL

[25] = Stability of the compound in artificial intestinal juice assessed as parent compound remaining at 1 mg/ml measured after 8 hrs by UPLC-MS/MS analysis; type: ADME; details: read-out: Stability
[26] = Metal chelating activity assessed as compound-Zn2+ complex formation at 37.5 uM incubated for 30 mins in presence of ZnCl2 by UV-Vis spectrometry
[27] = Stability of the compound in rat liver microsomes assessed as parent compound remaining at 10 ug/ml measured after 60 mins by UPLC-MS/MS analysis; type: ADME, Microsome; details: at 10 µg/mL, read-out: Stability
[28] = Metal chelating activity assessed as compound-Cu2+ complex formation by measuring maximum absorption wavelength shift from 316 to 446 nm at 37.5 uM incubated for 30 mins in presence of CuCl2 by UV-Vis spectrometry
[29] = Metal chelating activity assessed as compound-Cu2+ complex formation at stoichiometric ratio of 1:1 at 37.5 uM in presence of CuCl2 by UV-Vis spectrometry
[30] = Metal chelating activity assessed as compound-Al3+ complex formation by measuring maximum absorption wavelength shift from 316 to 434 nm at 37.5 uM incubated for 30 mins in presence of AlCl3 by UV-Vis spectrometry
PC-12 [31] = test: Neuroprotective activity against Amyloid beta(25 to 35)-induced cell injury in rat PC12 cells assessed as cell viability at 10 uM pretreated for 2 hrs followed by incubation with Abeta(25 to 35) for 24 hrs by CCK-8 assay (reference value: 41 to 58.6%); type: functional; details: time 26 hrs, read-out: Activity
[32] = Metal chelating activity assessed as compound-Cu2+ complex formation by measuring inhibition of Cu2+-induced amyloid beta (1 to 42) aggregation at 25 uM by thioflavin T-based fluorescence analysis
PC-12 [33] = test: Cytotoxicity against rat PC-12 cells assessed as cell viability at 40 uM by CCK-8 assay; type: toxicity, cell-based; details: pc-12, 40 µM
[34] = Metal chelating activity assessed as compound-Cu2+ complex formation by measuring small fiber aggregates incubated for 24 hrs by transmission electron microscopy
[35] = target: Cholinesterase (Equus caballus) (UniProt P81908); test: Reversible inhibition of equine serum BuChE assessed as enzyme activity using butyrylthiocholine chloride as substrate measured after dilution to 0.1XIC50 for 240 mins by Ellman's method; type: cell-free; set-up: scale not given: the % may be the effect or the level left
Danio rerio [36] = organism: Danio rerio; test: Antialzheimer activity against AlCl3-induced Alzheimer's disease zebra fish model assessed as total distance moved at 8 uM treated for 24 hrs and measured after 24 hrs under light environment (reference value: 230 cm); type: functional; details: time 48 hrs
Danio rerio [37] = organism: Danio rerio; test: Neuroprotective activity against AlCl3-induced Alzheimer's disease zebra fish model assessed as inhibition of AlCl3-induced AChE activity at 8 uM treated for 24 hrs and measured after 24 hrs; type: functional, organism-based; details: time 48.0 hrs
Danio rerio [38] = organism: Danio rerio; test: Neuroprotective activity against AlCl3-induced Alzheimer's disease zebra fish model assessed as increase in ACh content at 8 uM treated for 24 hrs and measured after 24 hrs; type: functional, organism-based; details: time 48.0 hrs
Danio rerio [39] = organism: Danio rerio; test: Antialzheimer activity against AlCl3-induced Alzheimer's disease zebra fish model assessed as total distance moved at 8 uM treated for 24 hrs and measured after 24 hrs under alternating light dark stimuli conditions (reference value: 543 cm); type: functional; details: time 48 hrs
Danio rerio [40] = organism: Danio rerio; test: Antialzheimer activity against AlCl3-induced Alzheimer's disease zebra fish model assessed as total distance moved at 8 uM treated for 24 hrs and measured after 24 hrs under dark environment (reference value: 312 cm); type: functional; details: time 48 hrs

CC(C(=O)O)c1ccc(-c2ccccc2)c(F)c1 (configuration not stated) [FLURBIPROFEN]
Activity (BV-2 [1]): Non-Toxic | Activity (BV-2 [2]): 808.6 pg/mL | Activity (BV-2 [3]): 1096.7 pg/mL | Activity (BV-2 [4]): 185.6 pg/mL | Activity (BV-2 [5]): 1280.5 pg/mL | Activity (BV-2 [6]): 149.8 pg/mL | Activity (BV-2 [7]): 92.9 pg/mL

O=C(/C=C/c1ccc(F)cc1)c1ccccc1O
Activity (BV-2 [8]): Dose-Dependent Effect | Activity [9]: inactive | viability at 30 µM [10]: 80.1% | Activity (BV-2 [11]): Non-Toxic | Papp at 18 h, 100 ug/ml [12]: 11.5 ×10⁻⁶ cm/s | Ratio IC50 (Homo sapiens): 57.2 | inhibition [13]: 10.6% | viability at 5 µM (PC-12 [14]): 80.6% | remaining at 3 h, 10 ug/ml [15]: 101% | pIC50 [16]: 4.42 | inhibition [17]: 76.9% | pIC50 [18]: 6.17 | Activity (BV-2 [19]): Dose-Dependent Effect | Activity (BV-2 [20]): Dose-Dependent Effect | remaining at 8 h, 1 mg/ml [21]: 96% | remaining at 8 h, 1 mg/ml [22]: 97% | viability at 20 µM (PC-12 [23]): 99.1% | remaining at 8 h, 1 mg/ml [24]: 99% | pIC50 (Acetylcholinesterase): 4.59 | remaining at 8 h, 1 mg/ml [25]: 96.5% | Activity [26]: inactive | remaining at 1 h, 10 ug/ml [27]: 97.2% | Activity [28]: Active | Activity [29]: Active | Activity [30]: Active | viability at 10 µM (PC-12 [31]): 89.9% | inhibition [32]: 86.5% | Activity (PC-12 [33]): Non-Toxic | Activity [34]: Active

COc1cc2c(cc1OC)C(=O)C(CC1CCN(Cc3ccccc3)CC1)C2 (configuration not stated) [DONEPEZIL]
Activity [35]: 118% | Activity (Danio rerio [36]): 334 cm | Activity (Danio rerio [37]): Active | Activity (Danio rerio [38]): Active | Activity (Danio rerio [39]): 671 cm | Activity (Danio rerio [40]): 325 cm
